These results are taken from BindingDB's records for doi:10.7270/Q2HM56V2 (The Scripps Research Institute Molecular Screening Center, 2008).

This experiment addresses T1, Signal transducer and activator of transcription 1-alpha/beta (Homo sapiens, UniProt P42224).
T1 sequence (P42224 whole entry): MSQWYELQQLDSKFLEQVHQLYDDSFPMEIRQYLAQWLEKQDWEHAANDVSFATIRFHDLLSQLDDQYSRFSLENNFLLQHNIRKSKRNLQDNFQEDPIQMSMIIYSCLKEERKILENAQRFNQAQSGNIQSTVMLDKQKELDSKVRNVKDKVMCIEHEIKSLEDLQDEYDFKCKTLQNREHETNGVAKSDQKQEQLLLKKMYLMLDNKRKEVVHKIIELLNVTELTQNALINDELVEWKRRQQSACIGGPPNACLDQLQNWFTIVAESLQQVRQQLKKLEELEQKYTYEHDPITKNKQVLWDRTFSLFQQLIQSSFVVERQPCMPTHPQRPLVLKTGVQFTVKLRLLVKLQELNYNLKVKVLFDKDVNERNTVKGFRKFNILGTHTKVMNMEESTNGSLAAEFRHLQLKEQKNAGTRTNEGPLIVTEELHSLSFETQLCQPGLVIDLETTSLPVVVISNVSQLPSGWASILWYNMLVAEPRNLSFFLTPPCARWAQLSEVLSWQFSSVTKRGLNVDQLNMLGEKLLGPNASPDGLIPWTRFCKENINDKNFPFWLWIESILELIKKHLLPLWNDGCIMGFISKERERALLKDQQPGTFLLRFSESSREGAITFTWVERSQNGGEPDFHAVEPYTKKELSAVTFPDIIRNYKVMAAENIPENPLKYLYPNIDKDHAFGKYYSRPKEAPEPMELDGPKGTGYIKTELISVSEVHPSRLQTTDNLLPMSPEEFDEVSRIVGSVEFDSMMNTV
Description: PubChem AID 1406.

Some results are limits rather than exact numbers.

In the case of `Cc1[nH]n(-c2ccccc2)c(=O)c1C=C1C(=O)NC(=O)NC1=O`, the concentration giving a half-maximal response (EC50) was greater than 55.7 µM.

What is called EC50 is the midpoint of the concentration-response curve. Higher therefore signals lower potency in that assay.
